Source: patent US12599685B2, “Tumor stroma imaging agent and preparation method thereof” (SHANGHAI UNIVERSITY OF MEDICINE & HEALTH SCIENCES, priority 2020, dated 2026)

Columns and labels:
tumor-bearing mice = assay: Biodistribution in tumor-bearing mice; format: in vivo
Procedure: Six mice were divided into an experimental group and a blockage group with 3 mice in each group. Mice in the experimental group each were injected with (S)—[^18F]—AlF-NOTA-Bn-FAPI-4 (3.7 MBq, 100 μCi) through a tail vein within 1 min, and 60 min later, the mice each were sacrificed by cutting a carotid artery for bloodletting. Mice in the blockage group each were injected with 100 μg of the blocker AlF-FAPI-75 (1,000 μg/mL) through a tail vein and injected with (S)—[^18F]—AlF-NOTA-Bn-FAPI-4 (3.7 MBq, 100 μCi) through a tail vein 30 min later, and 60 min later, the mice each were sacrificed by cutting a carotid artery for bloodletting. The heart, liver, lung, kidney, spleen, brain, and the like were collected, weighed, and tested for radioactivity. Finally, an (S)—[^18F]—AlF-NOTA-Bn-FAPI-4 radioactivity uptake rate (a percentage of uptake radioactivity per gram of tissue in the injected radioactivity, ID/g) in each of blood and various organs and a radioactivity ratio of a target organ to a non-target organ (T/NT) were calculated at different time points.

HT-1080-FAP cell line = assay: Cell binding experiment of (S)-[18F]-AlF-NOTA-Bn-FAPI-4; format: cell-based, human; conditions: 1 h incubation
Procedure: (S)—[^18F]—AlF-NOTA-Bn-FAPI-4 was adopted as an experimental group, AlF-FAPI-75+(S)—[^18F]—AlF-NOTA-Bn-FAPI-4 was adopted as a blockage group, and free ^18F^− was adopted as a control group.
A human fibrosarcoma cell HT-1080-FAP (HT-1080-FAP cell line) transfected by an FAP gene was activated to obtain an HT-1080-FAP cell suspension.
(§1) The experimental group: 2 mL of the HT-1080-FAP cell suspension was taken and washed three times with frozen PBS. A complete medium including the imaging agent (S)—[^18F]—AlF-NOTA-Bn-FAPI-4 (2.96 MBq, 80 μCi) was added, and the resulting mixture was incubated for 1 h. The cells were washed three times with frozen PBS, and 0.5 mL of NaOH-sodium dodecyl sulfate (SDS) (1M NaOH, 1% SDS) was added for lysis. The resulting cell lysate was finally collected, placed in a marked γ-counting tube, and subjected to γ-counting.
as §1, with “blockage” for “experimental”, “PBS. A complete medium including the blocker AlF-FAPI-75 was added, and the resulting mixture was incubated for 0.5 h.” for “PBS.”, “NaOH-SDS (1 M” for “NaOH-sodium dodecyl sulfate (SDS) (1M”
as §1, with “control” for “experimental”, “free ^18F^−” for “imaging agent (S)—[^18F]—AlF-NOTA-Bn-FAPI-4”, “NaOH-SDS (1 M” for “NaOH-sodium dodecyl sulfate (SDS) (1M”, “γ-counting. The final volumes of the groups were the same.” for “γ-counting.”

[1] = blockage group: 100 μg AlF-FAPI-75 i.v. 30 min before tracer, 1 h after injection
[2] = experimental group, 1 h after tail vein injection, 3.7 MBq
[3] = tumor-bearing mice, 1 h after injection

Substance: (S)—[^18F]—AlF-NOTA-Bn-FAPI-4
- Distribution, Blood (tumor-bearing mice; [1]): 0.13±0.10 % ID/g
- Distribution, Bone (tumor-bearing mice; [1]): 0.06 ± 0.01 % ID/g
- Distribution, Brain (tumor-bearing mice; [1]): 0.03 ± 0.01 % ID/g
- Distribution, Heart (tumor-bearing mice; [1]): 0.08 ± 0.05 % ID/g
- Distribution, Intestine (tumor-bearing mice; [1]): 0.16 ± 0.02 % ID/g
- Distribution, Kidney (tumor-bearing mice; [1]): 0.84±0.21 % ID/g
- Distribution, Liver (tumor-bearing mice; [1]): 0.08 ± 0.04 % ID/g
- Distribution, Lung (tumor-bearing mice; [1]): 0.28 ± 0.19 % ID/g
- Distribution, Muscle (tumor-bearing mice; [1]): 0.09 ± 0.03 % ID/g
- Distribution, Spleen (tumor-bearing mice; [1]): 0.16 ± 0.14 % ID/g
- Distribution, Tumor (tumor-bearing mice; [1]): 0.22±0.05 % ID/g
- Distribution, Blood (tumor-bearing mice; [2]): 0.10±0.04 % ID/g
- Distribution, Bone (tumor-bearing mice; [2]): 0.15 ± 0.03 % ID/g
- Distribution, Brain (tumor-bearing mice; [2]): 0.02 ± 0.01 % ID/g
- Distribution, Heart (tumor-bearing mice; [2]): 0.09 + 0.09 % ID/g
- Distribution, Intestine (tumor-bearing mice; [2]): 0.19 ± 0.06 % ID/g
- Distribution, Kidney (tumor-bearing mice; [2]): 0.94±0.20 % ID/g
- Distribution, Liver (tumor-bearing mice; [2]): 0.07 ± 0.05 % ID/g
- Distribution, Lung (tumor-bearing mice; [2]): 0.16 ± 0.08 % ID/g
- Distribution, Muscle (tumor-bearing mice; [2]): 0.16 ± 0.05 % ID/g
- Distribution, Spleen (tumor-bearing mice; [2]): 0.10 ± 0.01 % ID/g
- Distribution, Tumor (tumor-bearing mice; [2]): 1.12±0.06 % ID/g
- clearance in the blood (tumor-bearing mice; [3]): quickly cleared in the blood
- route of excretion (tumor-bearing mice; [3]): mainly excreted by the kidney
- absorption of tumor cells, experimental group relative to blockage group (HT-1080-FAP cell line; t=6.713, P<0.05): 3 times
- absorption of tumor cells, experimental group relative to control group (free 18F-) (HT-1080-FAP cell line; t=8.934, P<0.01): 33.31 times
- Radioactivity count value (HT-1080-FAP cell line; HT-1080-FAP cells, 2.96 MBq (80 μCi), no blocker): 5999.98 ± 864.12 γ count value/min
- Radioactivity count value (HT-1080-FAP cell line; blockage group: blocker AlF-FAPI-75 incubated 0.5 h, then imaging agent 2.96 MBq): 2000.01 ± 113.34 γ count value/min
